PubChem BioAssay (NCI)
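Tested at 5 concentrations; 48 h exposure; 96-well plates; endpoints linearly interpolated, else capped at highest concentration. Here, GI50 denotes the concentration required for 50% inhibition of growth. TGI marks complete inhibition of growth.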

Columns and labels:
Assay in all cases: NCI anticancer screen, dose series, 48 h
IGROV1 ovarian = test system: IGROV1 ovarian
ACHN renal = test system: ACHN renal
PC-3 prostate = test system: PC-3 prostate
A549 NSCLC = test system: A549 NSCLC
SK-MEL-5 melanoma = test system: SK-MEL-5 melanoma
SK-MEL-28 melanoma = test system: SK-MEL-28 melanoma
MCF7 breast = test system: MCF7 breast
HS 578T breast = test system: HS 578T breast
NCI-H522 lung = test system: NCI-H522 lung
SK-OV-3 ovarian = test system: SK-OV-3 ovarian
NCI-H460 lung = test system: NCI-H460 lung
SF-295 CNS = test system: SF-295 CNS
A498 renal = test system: A498 renal
MDA-MB-231 breast = test system: MDA-MB-231 breast
OVCAR-4 ovarian = test system: OVCAR-4 ovarian
SNB-19 CNS = test system: SNB-19 CNS
COLO 205 colon = test system: COLO 205 colon
SF-268 CNS = test system: SF-268 CNS
UO-31 renal = test system: UO-31 renal
CAKI-1 renal = test system: CAKI-1 renal
HCT-15 colon = test system: HCT-15 colon
DU-145 prostate = test system: DU-145 prostate
OVCAR-3 ovarian = test system: OVCAR-3 ovarian
EKVX NSCLC = test system: EKVX NSCLC
UACC-257 melanoma = test system: UACC-257 melanoma
NCI/ADR-RES ovarian = test system: NCI/ADR-RES ovarian
OVCAR-8 ovarian = test system: OVCAR-8 ovarian
BT-549 breast = test system: BT-549 breast
SK-MEL-2 melanoma = test system: SK-MEL-2 melanoma
HL-60(TB) leukemia = test system: HL-60(TB) leukemia
HCC-2998 colon = test system: HCC-2998 colon
NCI-H226 lung = test system: NCI-H226 lung
HT29 colon = test system: HT29 colon
TK-10 renal = test system: TK-10 renal
CCRF-CEM leukemia = test system: CCRF-CEM leukemia
UACC-62 melanoma = test system: UACC-62 melanoma
SW-620 colon = test system: SW-620 colon
HOP-62 NSCLC = test system: HOP-62 NSCLC
SR leukemia = test system: SR leukemia
NCI-H23 lung = test system: NCI-H23 lung
RXF 393 renal = test system: RXF 393 renal
SNB-75 CNS = test system: SNB-75 CNS
K-562 leukemia = test system: K-562 leukemia
RPMI-8226 leukemia = test system: RPMI-8226 leukemia
MALME-3M melanoma = test system: MALME-3M melanoma
T-47D breast = test system: T-47D breast
MDA-MB-435 = test system: MDA-MB-435
OVCAR-5 ovarian = test system: OVCAR-5 ovarian
HOP-92 NSCLC = test system: HOP-92 NSCLC
M14 melanoma = test system: M14 melanoma
KM12 colon = test system: KM12 colon
U251 CNS = test system: U251 CNS
LOX IMVI melanoma = test system: LOX IMVI melanoma
MOLT-4 leukemia = test system: MOLT-4 leukemia
SF-539 CNS = test system: SF-539 CNS
HCT-116 colon = test system: HCT-116 colon
SN12C renal = test system: SN12C renal
786-0 renal = test system: 786-0 renal

SMILES: NC(CCCCO)C(=O)O (configuration not stated)
- TGI (IGROV1 ovarian): > 100 µM
- TGI (ACHN renal): > 100 µM
- TGI (PC-3 prostate): > 100 µM
- TGI (A549 NSCLC): > 100 µM
- TGI (SK-MEL-5 melanoma): > 100 µM
- TGI (SK-MEL-28 melanoma): > 100 µM
- TGI (MCF7 breast): > 100 µM
- TGI (HS 578T breast): > 100 µM
- TGI (NCI-H522 lung): > 100 µM
- TGI (SK-OV-3 ovarian): > 100 µM
- TGI (NCI-H460 lung): > 100 µM
- TGI (SF-295 CNS): > 100 µM
- TGI (A498 renal): > 100 µM
- TGI (MDA-MB-231 breast): > 100 µM
- TGI (OVCAR-4 ovarian): > 100 µM
- TGI (SNB-19 CNS): > 100 µM
- TGI (COLO 205 colon): > 100 µM
- TGI (SF-268 CNS): > 100 µM
- TGI (UO-31 renal): > 100 µM
- TGI (CAKI-1 renal): > 100 µM
- TGI (HCT-15 colon): > 100 µM
- TGI (DU-145 prostate): > 100 µM
- TGI (OVCAR-3 ovarian): > 100 µM
- TGI (EKVX NSCLC): > 100 µM
- TGI (UACC-257 melanoma): > 100 µM
- TGI (NCI/ADR-RES ovarian): > 100 µM
- TGI (OVCAR-8 ovarian): > 100 µM
- TGI (BT-549 breast): > 100 µM
- TGI (SK-MEL-2 melanoma): > 100 µM
- TGI (HL-60(TB) leukemia): > 100 µM
- TGI (HCC-2998 colon): > 100 µM
- TGI (NCI-H226 lung): > 100 µM
- TGI (HT29 colon): > 100 µM
- TGI (TK-10 renal): > 100 µM
- TGI (CCRF-CEM leukemia): > 100 µM
- TGI (UACC-62 melanoma): > 100 µM
- TGI (SW-620 colon): > 100 µM
- TGI (HOP-62 NSCLC): > 100 µM
- TGI (SR leukemia): > 100 µM
- TGI (NCI-H23 lung): > 100 µM
- TGI (RXF 393 renal): > 100 µM
- TGI (SNB-75 CNS): > 100 µM
- TGI (K-562 leukemia): > 100 µM
- TGI (RPMI-8226 leukemia): > 100 µM
- TGI (MALME-3M melanoma): > 100 µM
- TGI (T-47D breast): > 100 µM
- TGI (MDA-MB-435): > 100 µM
- TGI (OVCAR-5 ovarian): > 100 µM
- TGI (HOP-92 NSCLC): > 100 µM
- TGI (M14 melanoma): > 100 µM
- TGI (KM12 colon): > 100 µM
- TGI (U251 CNS): > 100 µM
- TGI (LOX IMVI melanoma): > 100 µM

SMILES: O=C1NC(=O)/C(=C/c2ccc3ncccc3c2)S1
- GI50 (IGROV1 ovarian): > 6.1 µM
- TGI (IGROV1 ovarian): > 21.7 µM
- GI50 (ACHN renal): > 25 µM
- TGI (ACHN renal): > 25 µM
- GI50 (PC-3 prostate): 17.9 µM
- TGI (PC-3 prostate): > 25 µM
- GI50 (A549 NSCLC): > 23.1 µM
- TGI (A549 NSCLC): > 25 µM
- GI50 (SK-MEL-5 melanoma): > 25 µM
- TGI (SK-MEL-5 melanoma): > 25 µM
- GI50 (SK-MEL-28 melanoma): 17.2 µM
- TGI (SK-MEL-28 melanoma): > 25 µM
- GI50 (MCF7 breast): 2.02 µM
- TGI (MCF7 breast): > 25 µM
- GI50 (HS 578T breast): 1.96 µM
- TGI (HS 578T breast): > 18.7 µM
- GI50 (NCI-H522 lung): > 20.3 µM
- TGI (NCI-H522 lung): > 25 µM
- GI50 (SK-OV-3 ovarian): 6.08 µM
- TGI (SK-OV-3 ovarian): > 25 µM
- GI50 (NCI-H460 lung): 12.6 µM
- TGI (NCI-H460 lung): > 25 µM
- GI50 (SF-295 CNS): > 25 µM
- TGI (SF-295 CNS): > 25 µM
- GI50 (A498 renal): 0.307 µM
- TGI (A498 renal): 2.2 µM
- GI50 (MDA-MB-231 breast): > 25 µM
- TGI (MDA-MB-231 breast): > 25 µM
- GI50 (OVCAR-4 ovarian): > 25 µM
- TGI (OVCAR-4 ovarian): > 25 µM
- GI50 (SNB-19 CNS): > 25 µM
- TGI (SNB-19 CNS): > 25 µM
- GI50 (COLO 205 colon): > 25 µM
- TGI (COLO 205 colon): > 25 µM
- GI50 (SF-268 CNS): > 25 µM
- TGI (SF-268 CNS): > 25 µM
- GI50 (UO-31 renal): 3.51 µM
- TGI (UO-31 renal): > 25 µM
- GI50 (CAKI-1 renal): > 25 µM
- TGI (CAKI-1 renal): > 25 µM
- GI50 (HCT-15 colon): > 21.1 µM
- TGI (HCT-15 colon): > 25 µM
- GI50 (MOLT-4 leukemia): > 25 µM
- TGI (MOLT-4 leukemia): > 25 µM
- GI50 (DU-145 prostate): > 25 µM
- TGI (DU-145 prostate): > 25 µM
- GI50 (SF-539 CNS): > 25 µM
- TGI (SF-539 CNS): > 25 µM
- GI50 (OVCAR-3 ovarian): > 25 µM
- TGI (OVCAR-3 ovarian): > 25 µM
- GI50 (UACC-257 melanoma): > 14.5 µM
- TGI (UACC-257 melanoma): > 25 µM
- GI50 (HCT-116 colon): > 25 µM
- TGI (HCT-116 colon): > 25 µM
- GI50 (NCI/ADR-RES ovarian): > 25 µM
- TGI (NCI/ADR-RES ovarian): > 25 µM
- GI50 (OVCAR-8 ovarian): > 25 µM
- TGI (OVCAR-8 ovarian): > 25 µM
- GI50 (BT-549 breast): > 25 µM
- TGI (BT-549 breast): > 25 µM
- GI50 (SN12C renal): > 25 µM
- TGI (SN12C renal): > 25 µM
- GI50 (SK-MEL-2 melanoma): > 25 µM
- TGI (SK-MEL-2 melanoma): > 25 µM
- GI50 (HL-60(TB) leukemia): 8.14 µM
- TGI (HL-60(TB) leukemia): > 25 µM
- GI50 (HCC-2998 colon): > 25 µM
- TGI (HCC-2998 colon): > 25 µM
- GI50 (NCI-H226 lung): > 25 µM
- TGI (NCI-H226 lung): > 25 µM
- GI50 (HT29 colon): 19.9 µM
- TGI (HT29 colon): > 25 µM
- GI50 (TK-10 renal): 6 µM
- TGI (TK-10 renal): > 25 µM
- GI50 (CCRF-CEM leukemia): > 25 µM
- TGI (CCRF-CEM leukemia): > 25 µM
- GI50 (UACC-62 melanoma): 16.3 µM
- TGI (UACC-62 melanoma): > 25 µM
- GI50 (SW-620 colon): > 25 µM
- TGI (SW-620 colon): > 25 µM
- GI50 (HOP-62 NSCLC): > 25 µM
- TGI (HOP-62 NSCLC): > 25 µM
- GI50 (SR leukemia): > 25 µM
- TGI (SR leukemia): > 25 µM
- GI50 (NCI-H23 lung): > 25 µM
- TGI (NCI-H23 lung): > 25 µM
- GI50 (RXF 393 renal): > 23.2 µM
- TGI (RXF 393 renal): > 25 µM
- GI50 (SNB-75 CNS): 1.4 µM
- TGI (SNB-75 CNS): > 25 µM
- GI50 (K-562 leukemia): > 25 µM
- TGI (K-562 leukemia): > 25 µM
- GI50 (RPMI-8226 leukemia): > 25 µM
- TGI (RPMI-8226 leukemia): > 25 µM
- GI50 (786-0 renal): > 25 µM
- TGI (786-0 renal): > 25 µM
- GI50 (MALME-3M melanoma): 7.11 µM
- TGI (MALME-3M melanoma): > 20.7 µM
- GI50 (T-47D breast): 1.23 µM
- TGI (T-47D breast): > 22.6 µM
- GI50 (MDA-MB-435): > 25 µM
- TGI (MDA-MB-435): > 25 µM
- GI50 (OVCAR-5 ovarian): 8.3 µM
- TGI (OVCAR-5 ovarian): > 25 µM
- GI50 (HOP-92 NSCLC): 0.749 µM
- TGI (HOP-92 NSCLC): > 22.8 µM
- GI50 (M14 melanoma): 13.7 µM
- TGI (M14 melanoma): > 25 µM
- GI50 (KM12 colon): > 25 µM
- TGI (KM12 colon): > 25 µM
- GI50 (U251 CNS): > 25 µM
- TGI (U251 CNS): > 25 µM
- GI50 (LOX IMVI melanoma): 13.7 µM
- TGI (LOX IMVI melanoma): > 25 µM
